Test results taken from ChEMBL document CHEMBL1157091, “An unprecedented biogenetic-type chemical synthesis of 1(15-->11) abeotaxanes from normal taxanes” (J Nat Prod, 2010).

Legend:
[1] = Cytotoxicity against human […] cells; assay type: cell-based
MCF7 = assay: Cytotoxicity against human MCF7 cells; assay type: functional, cell-based
MDA-MB-231 = assay: Cytotoxicity against human MDA-MB-231 cells; assay type: functional, cell-based

| SMILES | IC50 [1] [µM] | IC50 (MCF7) [µM] | IC50 (MDA-MB-231) [µM] |
| --- | --- | --- | --- |
| C=C1[C@H]2C[C@@H]3C[C@H](OC(C)=O)C(C)=C([C@@H](OC(C)=O)[C@H](OC(C)=O)[C@]2(C)[C@@H](OC(C)=O)C[C@@H]1O)C3(C)C | > 50 | > 50 | > 50 |
| CC(=O)O[C@H]1C(=O)[C@@]2(C)[C@H]([C@H](OC(=O)c3ccccc3)[C@]3(O)C[C@H](OC(=O)[C@H](O)[C@@H](NC(=O)c4ccccc4)c4ccccc4)C(C)=C1C3(C)C)[C@]1(OC(C)=O)CO[C@@H]1C[C@@H]2O [PACLITAXEL] | 27 | – | – |
